“Also recorded” adds a separate entry of the source. Like-named read-outs stand apart in the source and are kept apart here.
What was measured:
[1] = target: acetylcholinesterase (Homo sapiens (Human), UniProt P22303); assay: biochemical; assay type: biochemical; details: for potency on acetylcholinesterase compared with positive control drug donepezil hydrochloride: in vitro, enzymology level
[2] = system: learning and memory disorder of mice induced by scopolamine; assay: Morris water maze test, senile dementia mice model induced by scopolamine; assay type: in vivo; details: Table 6, scopolamine 1 mg/kg
[3] = modified Ellman method, read-out: IC50 (nM), inhibition activity on acetylcholinesterase

Sequence of acetylcholinesterase (P22303 32-614, species assumed): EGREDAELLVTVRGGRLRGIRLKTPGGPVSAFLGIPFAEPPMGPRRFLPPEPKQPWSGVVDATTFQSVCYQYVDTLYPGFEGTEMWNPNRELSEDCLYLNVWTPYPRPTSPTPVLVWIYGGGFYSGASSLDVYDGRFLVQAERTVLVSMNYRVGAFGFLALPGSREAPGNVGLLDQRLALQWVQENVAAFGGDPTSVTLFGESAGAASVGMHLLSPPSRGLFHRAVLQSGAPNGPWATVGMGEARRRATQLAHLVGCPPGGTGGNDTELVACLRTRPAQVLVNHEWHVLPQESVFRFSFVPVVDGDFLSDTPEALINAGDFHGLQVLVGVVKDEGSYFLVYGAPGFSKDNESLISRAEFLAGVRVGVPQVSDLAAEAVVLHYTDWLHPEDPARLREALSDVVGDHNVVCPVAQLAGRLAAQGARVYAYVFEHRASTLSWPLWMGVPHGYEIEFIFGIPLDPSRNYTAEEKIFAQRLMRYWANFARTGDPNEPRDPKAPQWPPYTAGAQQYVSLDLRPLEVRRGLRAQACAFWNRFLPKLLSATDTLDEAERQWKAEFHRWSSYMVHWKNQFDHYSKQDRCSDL

| Compound | potency on acetylcholinesterase compared with positive control drug donepezil hydrochloride [1] | IC50 [1, 3] [nM] | further results |
| --- | --- | --- | --- |
| O=C1c2cc3c(cc2C(=O)N1CCC1CCN(Cc2ccccc2F)CC1)OCO3 [Compound I-2, 6-[2-[1-[(2-fluorophenyl)methyl]-4-piperidyl]ethyl]-[1,3]dioxolo[4,5-f]isoindole-5,7-dione] | slightly higher potency than the positive control drug; also recorded: comparable inhibition activity on acetylcholinesterase with donepezil hydrochloride | – | IC50 ([1]; read-out: IC50 (nM), inhibition activity on acetylcholinesterase): 80 nM |
| O=C1c2cc3c(cc2C(=O)N1CCC1CCN(Cc2ccc(F)cc2)CC1)OCO3 [Compound I-4, 6-[2-[1-[(4-fluorophenyl)methyl]-4-piperidyl]ethyl]-[1,3]dioxolo[4,5-f]isoindole-5,7-dione] | slightly lower potency than the positive control drug; also recorded: comparable inhibition activity on acetylcholinesterase with donepezil hydrochloride | 167 | – |
| O=C1c2cc3c(cc2CN1CCC1CCN(Cc2ccccc2)CC1)OCO3 [Compound I-5, 6-[2-(1-benzyl-4-piperidyl)ethyl]-5H-[1,3]dioxolo[4,5-f]isoindol-7-one] | even lower | – | IC50 ([1]; IC50 (nM), inhibition activity on acetylcholinesterase, modified Ellman method): 502 nM |
| O=C1c2cc3c(cc2CN1CCC1CCN(Cc2ccccc2F)CC1)OCO3 [Compound I-6, 6-[2-[1-[(2-fluorophenyl)methyl]-4-piperidyl]ethyl]-5H-[1,3]dioxolo[4,5-f]isoindol-7-one] | even lower | 483 | – |
| O=C1c2cc3c(cc2CN1CCC1CCN(Cc2cccc(F)c2)CC1)OCO3 [Compound I-7, 6-[2-[1-[(3-fluorophenyl)methyl]-4-piperidyl]ethyl]-5H-[1,3]dioxolo[4,5-f]isoindol-7-one] | even lower | 486 | – |
| O=C1c2cc3c(cc2CN1CCC1CCN(Cc2ccc(F)cc2)CC1)OCO3 [Compound I-8, 6-[2-[1-[(4-fluorophenyl)methyl]-4-piperidyl]ethyl]-5H-[1,3]dioxolo[4,5-f]isoindol-7-one] | even lower | 658 | – |
| CC1c2cc3c(cc2C(=O)N1CCC1CCN(Cc2ccccc2)CC1)OCO3 (stereo not drawn) [Compound I-9, 6-[2-(1-benzyl-4-piperidyl)ethyl]-5-methyl-5H-[1,3]dioxolo[4,5-f]isoindol-7-one] | – | – | latent period day 1 ([2]; 5 mg/kg intragastric): 58.9 ± 4.0 s; latent period day 2 ([2]; 5 mg/kg intragastric): 60 ± 0 s; latent period day 3 ([2]; 5 mg/kg intragastric): 51.2 ± 11.0 s; latent period day 4 ([2]; 5 mg/kg intragastric): 53.4 ± 11.8 s; latent period day 5 ([2]; 5 mg/kg intragastric): 51.1 ± 11.5 s; times of crossing platform ([2]; 5 mg/kg intragastric): 1.27 ± 1.44; latent period day 1 ([2]; 10 mg/kg intragastric): 58.3 ± 6.5 s; latent period day 2 ([2]; 10 mg/kg intragastric): 56.6 ± 9.1 s; latent period day 3 ([2]; 10 mg/kg intragastric): 56.5 ± 6.3 s; latent period day 4 ([2]; 10 mg/kg intragastric): 51.1 ± 11.6 s; latent period day 5 ([2]; 10 mg/kg intragastric): 49.2 ± 16.9 s; times of crossing platform ([2]; 10 mg/kg intragastric): 1.80 ± 1.74 |
| CC1c2cc3c(cc2C(=O)N1CCC1CCN(Cc2ccccc2F)CC1)OCO3 (stereo not drawn) [Compound I-10, 6-[2-[1-[(2-fluorophenyl)methyl]-4-piperidyl]ethyl]-5-methyl-5H-[1,3]dioxolo[4,5-f]isoindol-7-one] | slightly lower potency than the positive control drug | 239 | – |
| CC1c2cc3c(cc2C(=O)N1CCC1CCN(Cc2cccc(F)c2)CC1)OCO3 (stereo not drawn) [Compound I-11, 6-[2-[1-[(3-fluorophenyl)methyl]-4-piperidyl]ethyl]-5-methyl-5H-[1,3]dioxolo[4,5-f]isoindol-7-one] | even lower | 889 | – |
| CC1c2cc3c(cc2C(=O)N1CCC1CCN(Cc2ccc(F)cc2)CC1)OCO3 (stereo not drawn) [Compound I-12, 6-[2-[1-[(4-fluorophenyl)methyl]-4-piperidyl]ethyl]-5-methyl-5H-[1,3]dioxolo[4,5-f]isoindol-7-one] | relative low activity | > 2000 | – |

— US9346818B2 (priority 2012, dated 2016)
